{"source": "patent US20250017907A1", "about": "“METHOD FOR PREVENTING AND/OR TREATING LIVER FIBROSIS BY USING 6-METHOXYBENZOXAZOLINONE AND COIX LACHRYMA-JOBI L. EXTRACT COMPRISING 6-METHOXYBENZOXAZOLINONE” (Taichung District Agricultural Research and Extension …, priority 2023, published 2025)", "key": {"[1]": {"tested_on": "TAA-induced liver fibrotic C57BL/6J mice", "test": "Hydroxyproline assay of liver tissue", "assay_type": "in vivo", "conditions": "CX groups (20 and 50 mg/kg oral, 6 weeks); vs TAA group", "protocol": "For tests of adlay extracts, mice were randomly divided into the following seven groups (n=6, per group): (1) No treatment group (NT, normal diet), (2) Thioacetamide group (TAA, 200 mg/kg, normal diet), (3) 10% adlay seed powder (ASP) group, (4) 1% adlay leaf powder (ALP) group, (5) 1% adlay seed polysaccharide (ASPS) group, (6) 0.025% adlay seed ethanolic extract (ASE) group and (7) 0.1% ASE group. NT group received pure saline, and other groups intraperitoneally injected with TAA dissolved into saline thrice a week.\nFor tests of CX, mice were randomly divided into the following four groups (n=8, per group): (1) NT group, (2) TAA group (200 mg/kg), (3) CX group (CX20, 20 mg/kg), and (4) CX group (CX50, 50 mg/kg). NT group received pure saline, and other groups intraperitoneally injected with TAA dissolved into saline thrice a week. Moreover, NT group and TAA group also received 5% propylene glycol, while CX groups received CX dissolved into 5% propylene glycol (prepared in 0.9% saline) by oral gavage once per day. […]\nThe procedure of hydroxyproline assay is as follows. The hydroxyproline, as an indirect index of the collagen content in the liver, was determined by a hydroxyproline assay kit and the testing procedures followed the manufacturer's protocol. […] The hydroxyproline content was measured at a wavelength of 558 nm on an ELISA reader (TECAN, Switzerland). […]"}, "[2]": {"tested_on": "PI3K and ERK signaling pathway", "test": "Western blot of PI3K and ERK signaling pathway", "assay_type": "cell-based, rat", "conditions": "TGF-β1-activated HSC-T6 cells, CX", "protocol": "The procedure of cell cultures is as follows. HSC-T6 cell is an immortalized cell line isolated from transformed SV40 large T-antigen transformed primary stellate cells of male Sprague-Dawley rats. HSC-T6 cells were maintained in Dulbecco's Modified Eagle Medium (DMEM, Sigma-Aldrich, USA) containing 8% fetal bovine serum (FBS, HyClone, USA), 100 U/mL of penicillin, and 100 μg/mL of streptomycin (Gibco, USA).\nFor hepatic stellate cell (HSC) activation, cells were cultured for 24 h and then replaced with serum-free medium for 24 h, after that, treated with transforming growth factor beta 1 (TGF-β1) (10 ng/mL) in the presence or absence of CX (10-100 μM) or adlay leaf, root, and seed extracts (25 and 50 μg/mL) for 24 h, or 30 min for intracellular signal pathways.\nThe procedure of Western blot analysis is as follows. Cells were lysed in RIPA buffer with protease inhibitor and then centrifuged at 4° C., 12000 rpm for 10 min. Collected the supernatant and quantified the total protein concentration to 50 μg. After heating at 95° C. for 10 min, the protein samples were separated by SDS-PAGE gel, transferred to PVDF membrane, followed by blocking with 6% milk, incubated with primary antibodies at 4° C., overnight and secondary antibodies at room temperature for 1 h. Blot images were visualized on Amersham Imager 680 (Cytiva, USA) with ECL agent (GeneDireX, USA)."}}}
{"smiles": "COc1ccc2[nH]c(=O)oc2c1", "note": "[CX, 6-methoxybenzoxazolinone]", "values": [{"measurement": "liver hydroxyproline content", "setting": "[1]", "value": "significantly lower"}, {"measurement": "phosphorylation of ERK (p-ERK1/2, Western blot)", "setting": "[2]", "value": "did not cause significant changes"}, {"measurement": "phosphorylation of PI3K (p-PI3K, Western blot)", "setting": "[2]", "value": "did not cause significant changes"}]}
